Read-outs that look alike come from different tables or passages of the source.
Columns and labels:
S. pneumoniae TIGR4Δfhs = experiment: Planktonic growth of S. pneumoniae fhs deletion mutant; type: cell-based, Streptococcus pneumoniae; details: S. pneumoniae fhs inactivated mutant; 0.25 μg/ml carolacton
Protocol: FIG. 4. Carolacton effects on S. pneumoniae TIGR4 and foID deletion, complementation and fhs deletion mutants. (A) Growth inhibition of planktonic cultures of S. pneumoniae TIGR4 wild type, ΔfoID deletion mutant and controls in THBY. Carolacton (caro) (0.25 μg/ml) was added at an optical density of 600 nm (OD600) of 0.15. (B) Planktonic growth of the S. pneumoniae TIGR4 wild type and the TIGR4Δfhs mutant in THBY. Cultures were treated with 0.25 μg/ml carolacton (OD600 0.15).
The Streptococcus mutans and Streptococcus pneumoniae strains used herein are UA159 and TIGR4, respectively. S. pneumoniae TIGR4 was routinely grown on Columbia blood agar plates (BD Biosciences) as described previously (Donner et. al, 2016). Streptococci were grown in Todd-Hewitt-Broth +1% (w/v) yeast extract (THBY, BD Biosciences)) at 37° C. and 5% CO2. The E. coli ToIC strain used in carolacton-resistant mutant development is an antibiotic-sensitive E. coli strain without its outer membrane channel protein ToIC. E. coli DH1OB or DH5α strain was used for gene cloning and E. coli BL21 (DE3) was used for protein expression. The protein expression plasmid pHis-TEV (Liu et al., 2009) was used for cloning and expression of all different foID gene orthologues studied herein.

NCI-N87 cells = experiment: CellTiter-Glo luminescent cell viability assay; type: cell-based, human; details: for IC50: Homo sapiens, NCI-N87, 72 h, 72 h, read-out: IC50 inhibition of cancer cell proliferation
Protocol: (§1) To evaluate the effects of one compound on 7 cell lines with a CellTiter-Glo Luminescent Cell Viability Assay. Cells were treated with compounds for 72 hours at 37° C./5% CO2 incubator. Compound stock concentration was 20 mM, concentrations to be assayed 100\50\15\10.5\0.1\0.05\0.01\0.005 pM. • i) Materials and Reagents
(§2) a) Cells in log-phase are collected and counted. Cell suspensions are added to each well of 384-w plate at a suitable density. The margin wells are filled with PBS.
(§3) b) Test compound at various concentrations are added in duplicates
(§4) c) The cells were incubated for 72 h in 370/5% CO 2 incubator.
(§5) d) After incubation, CellTiter-Glo® Reagent is added to each test well and shack for 2 minutes on an orbital shaker.
(§6) e) The plates are shortly centrifuged at 90×g for 30 s and incubated at room temperature for additional 10 minutes to stabilize the luminescent signal.
(§7) f) Luminescence signals are detected on PHERAstar Plus.
(§8) g) Data is collected in Microsoft excel forms and analyzed with GraphPad Prism v.6 software. • iii) Data analysis
(§9) The potential effect of the testing compounds an cell proliferation was calculated by the formula below: Inhibition %=[…]
(§10) Since hsMTHFD2 is expressed in human mitochondria and overexpressed in many tumor cells we next aimed to evaluate its potential as an anticancer compound. To this end IC50 values for carolacton were determined for six different cancer cell lines as well as HUVEC cells as primary non-tumor cells. The CellTiter-Glo luminescent cell viability assay (Promega) was used on triplicate cultures grown for three days. Each cell line was tested in three independent experiments (performed at different times and by different experimentators): First, using natural carolacton purified from culture supernatants of Sorangium cellulosum and solved in methanol; second, using carolacton synthesized de novo according to Schmidt et al. 2012 and solved in DMSO; and third, using synthetic carolacton synthesized de novo according to Schmidt et al. 2012 and solved in methanol.

HUVEC cells = experiment: CellTiter-Glo luminescent cell viability assay; type: cell-based, human; details: for IC50: Homo sapiens, HUVEC
Protocol: as §1, §2, §3, §4, §5, §6, §7, §8, §9, §10

NK-92 cells = experiment: CellTiter-Glo luminescent cell viability assay; type: cell-based, human; details: for IC50: Homo sapiens
Protocol: as §1, §2, §3, §4, §5, §6, §7, §8, §9, §10

SW626 cells = experiment: CellTiter-Glo luminescent cell viability assay; type: cell-based, human; details: for IC50: Homo sapiens, SW626, 72 h, 72 h, read-out: IC50 inhibition of cancer cell proliferation
Protocol: as §1, §2, §3, §4, §5, §6, §7, §8, §9, §10

U-937 cells = experiment: CellTiter-Glo luminescent cell viability assay; type: cell-based, human; details: for IC50: Homo sapiens
Protocol: as §1, §2, §3, §4, §5, §6, §7, §8, §9, §10

HCT 116 cells = experiment: CellTiter-Glo luminescent cell viability assay; type: cell-based, human; details: for IC50: Homo sapiens, HCT-116, 72 h, 72 h, read-out: IC50 inhibition of cancer cell proliferation
Protocol: as §1, §2, §3, §4, §5, §6, §7, §8, §9, §10

THP-1 cells = experiment: CellTiter-Glo luminescent cell viability assay; type: cell-based, human; details: for IC50: Homo sapiens, THP-1, 72 h, 72 h
Protocol: as §1, §2, §3, §4, §5, §6, §7, §8, §9, §10

[1] = HUVEC (primary), natural C, methanol
[2] = HUVEC (primary), synthetic C, DMSO
[3] = HUVEC (primary), synthetic C, methanol

Compound: CO[C@H](CC(=O)O)[C@@H](C)C(=O)[C@H](C)/C=C(\C)[C@H]1OC(=O)[C@H](O)[C@H](O)/C=C/[C@H](C)CCC[C@@H]1C [Carolacton, carolacton]
- inhibition of planktonic growth (S. pneumoniae TIGR4Δfhs): complete inhibition
- IC50 (NCI-N87 cells; natural C, methanol): 225 nM
- IC50 (NCI-N87 cells; synthetic C, DMSO): > 100000 nM
- IC50 (NCI-N87 cells; synthetic C, methanol): 352 nM
- Bottom (NCI-N87 cells; natural C, methanol): 11.93
- Top (NCI-N87 cells; natural C, methanol): 41.34
- Bottom (NCI-N87 cells; synthetic C, methanol): 6.683
- Top (NCI-N87 cells; synthetic C, methanol): 23.87
- Bottom (HUVEC cells; [1]): −4.548
- Top (HUVEC cells; [1]): =100.0
- Bottom (HUVEC cells; [2]): −7.188
- Top (HUVEC cells; [2]): =100.0
- Bottom (HUVEC cells; [3]): −3.312
- Top (HUVEC cells; [3]): =100.0
- IC50 (HUVEC cells; 72 h, HUVEC (primary), natural C, methanol, 72 h, read-out: IC50 inhibition of cell proliferation): 48300 nM
- IC50 (HUVEC cells; 72 h, HUVEC (primary), synthetic C, DMSO, 72 h, read-out: IC50 inhibition of cell proliferation): 103000 nM
- IC50 (HUVEC cells; HUVEC cells, read-out: IC50): 46400 nM
- IC50 (NK-92 cells; NK92, 72 h, NK-92, natural C, methanol, 72 h, read-out: IC50 inhibition of cancer cell proliferation): 39.9 nM
- IC50 (NK-92 cells; NK92, 72 h, NK-92, synthetic C, DMSO, 72 h, read-out: IC50 inhibition of cancer cell proliferation): > 100000 nM
- IC50 (NK-92 cells; NK92, 72 h, read-out: IC50 inhibition of cancer cell proliferation, NK-92, synthetic C, methanal, 72 h): 36.7 nM
- IC50 (NK-92 cells; NK92, malignant NK-92 cells, read-out: IC50 inhibition of proliferation): 37 to 39 nM
- Bottom (NK-92 cells; NK-92, natural C, methanol): −9.96
- Top (NK-92 cells; NK-92, natural C, methanol): 91.08
- Bottom (NK-92 cells; NK-92, synthetic C, methanal): 1.208
- Top (NK-92 cells; NK-92, synthetic C, methanal): 91.05
- IC50 (SW626 cells; natural C, methanol): 365 nM
- IC50 (SW626 cells; synthetic C, DMSO): 908 nM
- IC50 (SW626 cells; synthetic C, methanol): 992 nM
- Bottom (SW626 cells; natural C, methanol): 1.167
- Top (SW626 cells; natural C, methanol): 42.81
- Bottom (SW626 cells; synthetic C, DMSO): 5.588
- Top (SW626 cells; synthetic C, DMSO): 43.17
- Bottom (SW626 cells; synthetic C, methanol): 3.62
- Top (SW626 cells; synthetic C, methanol): 47.2
- IC50 (U-937 cells; U-937, 72 h, U-937, natural C, methanol, 72 h, read-out: IC50 inhibition of cancer cell proliferation): 10.7 nM
- IC50 (U-937 cells; U-937, 72 h, U-937, synthetic C, DMSO, 72 h, read-out: IC50 inhibition of cancer cell proliferation): 44.7 nM
- IC50 (U-937 cells; U-937, 72 h, U-937, synthetic C, methanol, 72 h, read-out: IC50 inhibition of cancer cell proliferation): 6.84 nM
- IC50 (U-937 cells; U-937, Lymphoma cells (U-937), read-out: IC50 inhibition of proliferation): 6.8 to 44.7 nM
- Bottom (U-937 cells; U-937, natural C, methanol): =0.0
- Top (U-937 cells; U-937, natural C, methanol): 67.6
- Bottom (U-937 cells; U-937, synthetic C, DMSO): 1.808
- Top (U-937 cells; U-937, synthetic C, DMSO): 61.59
- Bottom (U-937 cells; U-937, synthetic C, methanol): 0
- Top (U-937 cells; U-937, synthetic C, methanol): 60.9
- IC50 (HCT 116 cells; natural C, methanol): 530 nM
- IC50 (HCT 116 cells; synthetic C, DMSO): 286 nM
- IC50 (HCT 116 cells; synthetic C, methanol): 521 nM
- Bottom (HCT 116 cells; natural C, methanol): −1.927
- Top (HCT 116 cells; natural C, methanol): 43.89
- Bottom (HCT 116 cells; synthetic C, DMSO): −1.609
- Top (HCT 116 cells; synthetic C, DMSO): 63.98
- Bottom (HCT 116 cells; synthetic C, methanol): −2.614
- Top (HCT 116 cells; synthetic C, methanol): 63.68
- IC50 (THP-1 cells; THP 1, synthetic C, methanol, read-out: IC50 inhibition of cancer cell proliferation): 49600 nM
- IC50 (THP-1 cells; THP-1, natural C, methanol, read-out: IC50 inhibition of cancer cell proliferation): 8820 nM
- IC50 (THP-1 cells; read-out: IC50 inhibition of cancer cell proliferation, THP-1, synthetic C, DMSO): 103000 nM
- Bottom (THP-1 cells; THP 1, synthetic C, methanol): 14.83
- Top (THP-1 cells; THP 1, synthetic C, methanol): 67.53
- Bottom (THP-1 cells; THP-1, natural C, methanol): 2.537
- Top (THP-1 cells; THP-1, natural C, methanol): 75.92
- Bottom (THP-1 cells; THP-1, synthetic C, DMSO): −4.341
- Top (THP-1 cells; THP-1, synthetic C, DMSO): =100.0
